Tests used:
A498 and RCC068 = test: Long-term culture of renal cell carcinoma cell lines in the presence of TKIs; assay type: cell-based, human; conditions: 13 μM sorafenib, 14 d time point, cells harvested after 10 days
Method: The human renal cell carcinoma cell lines A498 and RCC068 were cultured in RPMI medium (5% FCS (Biochrom, Berlin, Germany), 5% HS (PromoCell, Heidelberg, Germany)). […] For each time point 3 flasks of each cell line were prepared by containing either 0.1% DMSO alone as a control, 13 μM sorafenib (8.3 μg/ml sorafenib tosylate)+0.1% DMSO, or 250 nM sunitinib (133 ng/ml sunitinib malate).
A normal medium control sample containing neither DMSO nor TKIs was harvested at 1 h for each cell line.

[1] = test system: HLA-A*02+ PBMCs (CD4+ and CD8+ effector cells); conditions: absence of target cells or autologous target cells
Method: Two fresh buffy coat (HLA-A*02+ and HLA-A*02−) were obtained from the Katharinenhospital Stuttgart. PBMCs were isolated by standard density gradient isolation and incubated overnight in T-cell medium (TCM) for human in vitro priming as in WP03 #4. Ca2+ and Mg2+ free PBS (Cambrex) washed HLA-A*02+ PBMCs were labeled at 1×10^7 cells/ml with 1 μM CFSE (Fluka, Buchs, Germany) at 37° C. for 4 minutes. Labeling was stopped by adding the same volume heat inactivated FCS (Invitrogen) and labeled cells were washed in TCM. Irradiation of target or feeder cells, if indicated, was performed at 33 Gy using a 1000 Elite gammacell (MDS Nordion, Ottawa, Canada). Stock solutions of sorafenib tosylate and sunitinib malate were prepared in DMSO (Merck, Darmstadt, Germany) and frozen aliquoted at −80° C. Mixed lymphocyte reactions were performed by coculturing 2×10^5 CFSE labeled effector plus 2×10^5 irradiated target cells as indicated per well of 96 well round bottom plates in 200 μl TCM in the presence of indicated concentrations of sorafenib, sunitinib or DMSO at 37° C. and 5% CO2 (day 1). On day 4, 100 μl supernatant was removed and 100 μl TCM supplemented with the original concentration of TKIs was added. […] Cells were washed, fixed in PFEA containing 1% formaldehyde (Fluka) and analyzed on a FACSCalibur (BD). […]

[2] = test system: CD4+ CD25+ Tregs, T cells, B cells, splenocytes; test: Immune cell populations in spleen and PBMCs of TKI-treated mice; assay type: in vivo, C57BL/6 mice; conditions: 4 weeks treatment
[3] = mouse, in vivo
Method: Female C57BL/6 mice (20-25 g, Harlan Winkelmann GmbH, Borchen, Germany) were used for all experiments described in this section. Animals were kept in the animal facility of the Dept. of Immunology at the University of Tuebingen. Animals were cared for by trained animal keepers and health status of animals was supervised by the veterinaries of the University of Tübingen. Feeding with drug was also performed in part by the local animal keepers after special training. All animals were supplied with water and food ad libitum. The described experiments were performed according to procedure no. IM1/06 approved by the Regierungsprasidium Tuebingen.
A liquid, viscous vehicle composed of 30% (w/v) Cremophor EL (Sigma, Deisenhofen, Germany), 30% (w/v) PEG 400 (Sigma, Deisenhofen, Germany), 10% ethanol p.a., 10% glucose was used. Sunitinib and sorafenib were suspended in vehicle according to the planned dosages in a way that […] body weight had to be applied to all mice, according to approx. 50 μl of suspension. Feasible aliquots were prepared from suspensions and from vehicle and stored until use at −20° C. in the dark. Thawed substance was stored at 4° C. and used within the next three days. Animals were weighed before start of treatment and thereafter weekly. The deduced dosage was applied daily using a 1 ml syringe with gavage into the backward cavity of the mouth of the animal without anesthesia. Drug delivery into blood plasma was controlled as described in example 1.
1) Immunization under continuous treatment with tyrosine kinase inhibitors. Pretreatment phase was two weeks (see FIG. 5A). […]
3) The experimental design was identical to a) Beside negative and positive control groups, groups treated with 60 mg/kg body weight sorafenib, and 20 and 40 mg/kg body weight sunitinib were included (6 mice per group). For spleen cells, CD4, Tregs, CD8 cells, and B cells were assessed, for PBMCs CD4, CD8, B cells and Tregs were analyzed.

[4] = HPLC quantification of TKI plasma levels in mouse models; assay type: in vivo; conditions: oral dosing
Method: The proteins were precipitated with 40 μl 100% acetonitril (Acros, Geel, Belgium), centrifuged and filtered through a 0.2 μm PVDF filter. 10 μl was directly injected to the HPLC system.
The HPLC system consisted of a Binary HPLC pump (Shimadzu LC10aVP), a Shimadzu SIL-10aVP autosampler, a Shimadzu CTO-10asVP column oven and a Shimadzu SPD10aVP detector. Data acquisition and analysis was performed using the Shimadzu Class-VP 7.3 software. Chromatographic separation was carried out on a reverse phase C18 column (Reprosil Pur ODS-3μ, 60×2 mm). To protect the analytical column a guard column has been used (Reprosil Pur ODS-5μ, 10×2 mm). Eluent A consisted of water (LCMS grade, Acros, Geel, Belgium), modified by 0.1% formic acid (Merck, Darmstadt, Germany) and eluent B was 80% acetonitril (Acros, Geel, Belgium) with 0.1% formic acid (Merck, Darmstadt, Germany).
The following gradient was used: 5 min 25% eluent B, 15 min 62.5% eluent B, 6 min 80% eluent B and 5 min 80% eluent B. The temperature of the autosampler was kept at 4° C. The temperature of the column was maintained at 30° C. The detection wavelength was set at 400 nm, the injection volume was 10 μl. The column was equilibrated with the mobile phase at a flow rate 0.5 ml/min.
For Sorafenib analysis, 10 μl of 50% acetonitril (Acros, Geel, Belgium) was added to 50 serum or medium in 0.5 ml PCR tubes and mixed for 10 seconds. […]

A498 tumor cells = conditions: A498, 24 h; 13 μM sorafenib or 250 nM sunitinib; normal medium control = 100%

CNC(=O)c1cc(Oc2ccc(NC(=O)Nc3ccc(Cl)c(C(F)(F)F)c3)cc2)ccn1 [Sorafenib, 4-(4-{3-[4-Chloro-3-(trifluoromethyl)phenyl]ureido}phenoxy)-N-methylpyrid-ine-2-carboxamide]
Cell growth in culture (A498 and RCC068): prevented cell growth
Baseline proliferation of effector cells [1]: did not increase
Number of CD4+ CD25+ Tregs among total CD4+ cells in PBMCs [2]: unchanged or even slightly elevated
Toxic side effects [3]: without any observed toxic side effects
Bioavailability / plasma levels at the used doses [4]: confirmed to reach plasma levels shown by others to be effective in tumor growth inhibition
% Expression relative to control: ADFP (A498 tumor cells): 100%
% Expression relative to control: APOL1 (A498 tumor cells): 71%
% Expression relative to control: CCND1 (A498 tumor cells): 81%
% Expression relative to control: GUCY1A3 (A498 tumor cells): 44%
% Expression relative to control: HLA-A (A498 tumor cells): 100%
% Expression relative to control: HLA-B (A498 tumor cells): 87%
% Expression relative to control: HLA-C (A498 tumor cells): 87%
% Expression relative to control: MET (A498 tumor cells): 62%
% Expression relative to control: MMP7 (A498 tumor cells): 25%
% Expression relative to control: MUC1 (A498 tumor cells): 107%
% Expression relative to control: PSMB8 (A498 tumor cells): 87%
% Expression relative to control: PSMB9 (A498 tumor cells): 123%
% Expression relative to control: TAP1 (A498 tumor cells): 123%

Reference: patent US9308244B2, “Combination therapy using active immunotherapy” (immatics Biotechnologies GmbH, priority 2007, dated 2016)
